Patent EP2768830B1, “APOPTOSIS-INDUCING AGENTS FOR THE TREATMENT OF CANCER AND IMMUNE AND AUTOIMMUNE DISEASES” (AbbVie Inc., priority 2011, dated 2013)
Read-outs that look alike come from different tables or passages of the source.

Legend:
[1] = system: mouse FL5.12 cells transfected with Bcl-XL; assay: FL5.12 cellular assay (cell viability, CellTiter-Glo); format: cell-based; conditions: FL5.12 cells transfected with Bcl-XL, IL-3-depleted, 3% FBS assay media, 24 hours, CellTiter-Glo, read-out: FL5.12 Bcl-xL, - IL3, EC 50;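 note: each EC50 determination derived from duplicate measurements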
Protocol: For assaying the compound activity, the cells were exchanged into an IL-3-depleted deprivation media, which was identical to the growth media except for the absence of FBS and WEHI-3B conditional media, for 2 days. Then the cells were exchanged to 3% FBS assay media (RPMI with 2 mM glutamine, 1% 100 mM sodium pyruvate, 2% 1 M HEPES, 4 µL/L of β-mercaptoethanol, 1% penicillin-streptomycin, 3% FBS). Compounds in series dilutions were added, and the cells were cultured for 24 hours. Compounds in series dilutions were added, and the cells were cultured for 24 hours. Cell viability was assayed using the CellTiter-Glo assay (Promega Corp., Madison, WI) according to the manufacturer instructions. Individual determinations were the result of duplicate values.

GST-Bcl-xL = GST-Bcl-xL (Homo sapiens, UniProt Q07817); conditions: read-out: TR-FRET binding Bcl-xL Ki
Chain of GST-Bcl-xL (Q07817 whole entry): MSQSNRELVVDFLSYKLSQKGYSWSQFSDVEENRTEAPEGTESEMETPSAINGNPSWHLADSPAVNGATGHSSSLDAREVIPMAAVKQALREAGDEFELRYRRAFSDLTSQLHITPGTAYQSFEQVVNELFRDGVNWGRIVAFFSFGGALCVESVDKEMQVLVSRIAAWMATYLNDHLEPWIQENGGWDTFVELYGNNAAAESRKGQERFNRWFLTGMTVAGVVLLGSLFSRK

SMILES	EC50 ([1]; Mus musculus) [nM]	Ki (GST-Bcl-xL) [nM]	EC50 [1] [nM]
O=C(Nc1nc2ccccc2s1)c1cccc2c1CN(c1ccc(-c3cccc(OC4CCCCC4)c3C(F)(F)F)c(C(=O)O)n1)CC2 [Example 120, 6-[8-(1,3-benzothiazol-2-ylcarbamoyl)-3,4-dihydroisoquinolin-2(1H)-yl]-3-[3-(cyclohexyloxy)-2-(trifluoromethyl)phenyl]pyridine-2-carboxylic acid]	859	0.4	–
O=C(Nc1nc2ccccc2s1)c1cccc2c1CN(c1ccc(-c3cccc(Cc4ccccc4)c3)c(C(=O)O)n1)CC2 [Example 106, 6-[8-(1,3-benzothiazol-2-ylcarbamoyl)-3,4-dihydroisoquinolin-2(1H)-yl]-3-(3-benzylphenyl)pyridine-2-carboxylic acid]	234	0.1	–
CN(C)CC#Cc1ccccc1Cn1cc(-c2ccc(N3CCc4cccc(C(=O)Nc5nc6ccccc6s5)c4C3)nc2C(=O)O)cn1 [Example 51, 6-[8-(1,3-benzothiazol-2-ylcarbamoyl)-3,4-dihydroisoquinolin-2(1H)-yl]-3-(1-{2-[3-(dimethylamino)prop-1-yn-1-yl]benzyl}-1H-pyrazol-4-yl)pyridine-2-carboxylic acid]	> 1000	122	–
O=C(Nc1nc2ccccc2s1)c1cccc2c1CN(c1ccc(-c3cnn(CCc4ccccc4)c3)c(C(=O)O)n1)CC2 [Example 38, 6-[8-(1,3-benzothiazol-2-ylcarbamoyl)-3,4-dihydroisoquinolin-2(1H)-yl]-3-[1-(2-phenylethyl)-1H-pyrazol-4-yl]pyridine-2-carboxylic acid]	–	48	> 1000
Cc1c(-c2ccc(N3CCc4cccc(C(=O)Nc5nc6ccccc6s5)c4C3)nc2C(=O)O)ccnc1Oc1ccccc1 [Example 142, 6-[8-(1,3-benzothiazol-2-ylcarbamoyl)-3,4-dihydroisoquinolin-2(1H)-yl]-3'-methyl-2'-phenoxy-3,4'-bipyridine-2-carboxylic acid]	> 1000	0.5	–
O=C(Nc1nc2ccccc2s1)c1cccc2c1CN(c1ccc(-c3cnn(-c4ccccc4)c3)c(C(=O)O)n1)CC2 [Example 23, 6-[8-(1,3-benzothiazol-2-ylcarbamoyl)-3,4-dihydroisoquinolin-2(1H)-yl]-3-(1-phenyl-1H-pyrazol-4-yl)pyridine-2-carboxylic acid]	> 1000	182	–
O=C(Nc1nc2ccccc2s1)c1cccc2c1CN(c1ccc(-c3cnn(Cc4ccccc4)c3-c3ccccc3)c(C(=O)O)n1)CC2 [Example 65, 6-[8-(1,3-benzothiazol-2-ylcarbamoyl)-3,4-dihydroisoquinolin-2(1H)-yl]-3-(1-benzyl-5-phenyl-1H-pyrazol-4-yl)pyridine-2-carboxylic acid]	> 1000	393	–
COCCOc1ccccc1Cn1ncc(-c2ccc(N3CCc4cccc(C(=O)Nc5nc6ccccc6s5)c4C3)nc2C(=O)O)c1C [Example 89, 6-[8-(1,3-benzothiazol-2-ylcarbamoyl)-3,4-dihydroisoquinolin-2(1H)-yl]-3-{1-[2-(2-methoxyethoxy)benzyl]-5-methyl-1H-pyrazol-4-yl}pyridine-2-carboxylic acid]	23	0.5	–
Cc1c(-c2ccc(N3CCc4cccc(C(=O)Nc5nc6ccccc6s5)c4C3)nc2C(=O)O)cccc1N(C)C(=O)C1CCCCC1 [Example 177, 6-[8-(1,3-benzothiazol-2-ylcarbamoyl)-3,4-dihydroisoquinolin-2(1H)-yl]-3-{3-[(cyclohexylcarbonyl)(methyl)amino]-2-methylphenyl}pyridine-2-carboxylic acid]	24	< 0.1	–
O=C(Nc1nc2ccccc2s1)c1cccc2c1CN(c1ccc(-c3cnn(Cc4cccnc4)c3)c(C(=O)O)n1)CC2 [Example 3, 6-[8-(1,3-benzothiazol-2-ylcarbamoyl)-3,4-dihydroisoquinolin-2(1H)-yl]-3-[1-(pyridin-3-ylmethyl)-1H-pyrazol-4-yl]pyridine-2-carboxylic acid]	–	258	> 1000
Cc1c(-c2ccc(N3CCc4cccc(C(=O)Nc5nc6ccccc6s5)c4C3)nc2C(=O)O)cc(C#N)n1CC1(N(C)C)CCCCC1 [Example 176, 6-[8-(1,3-benzothiazol-2-ylcarbamoyl)-3,4-dihydroisoquinolin-2(1H)-yl]-3-(5-cyano-1-{[1-(dimethylamino)cyclohexyl]methyl}-2-methyl-1H-pyrrol-3-yl)pyridine-2-carboxylic acid]	10	< 0.1	–
Cc1c(-c2ccc(N3CCc4cccc(C(=O)Nc5nc6ccccc6s5)c4C3)nc2C(=O)O)cc(C(=O)O)n1Cc1ccccc1 [Example 124, 6-[8-(1,3-benzothiazol-2-ylcarbamoyl)-3,4-dihydroisoquinolin-2(1H)-yl]-3-(1-benzyl-5-carboxy-2-methyl-1H-pyrrol-3-yl)pyridine-2-carboxylic acid]	57	< 0.1	–
O=C(Nc1nc2ccccc2s1)c1cccc2c1CN(c1ccc(-c3cnn(Cc4cccc(O)c4)c3)c(C(=O)O)n1)CC2 [Example 17, 6-[8-(1,3-benzothiazol-2-ylcarbamoyl)-3,4-dihydroisoquinolin-2(1H)-yl]-3-[1-(3-hydroxybenzyl)-1H-pyrazol-4-yl]pyridine-2-carboxylic acid]	–	31	> 1000
Cc1c(-c2ccc(N3CCc4cccc(C(=O)Nc5nc6ccccc6s5)c4C3)nc2C(=O)O)cc(C#N)n1CC1(N2CCOCC2)CCCCC1 [Example 168, 6-[8-(1,3-benzothiazol-2-ylcarbamoyl)-3,4-dihydroisoquinolin-2(1H)-yl]-3-(5-cyano-2-methyl-1-{[1-(morpholin-4-yl)cyclohexyl]methyl}-1H-pyrrol-3-yl)pyridine-2-carboxylic acid]	14	< 0.1	–
Cc1cc(OC2CCCCC2)ccc1-c1ccc(N2CCc3cccc(C(=O)Nc4nc5ccccc5s4)c3C2)nc1C(=O)O [Example 113, 6-[8-(1,3-benzothiazol-2-ylcarbamoyl)-3,4-dihydroisoquinolin-2(1H)-yl]-3-[4-(cyclohexyloxy)-2-methylphenyl]pyridine-2-carboxylic acid]	> 1000	19	–
Cc1cc(Oc2ccccc2)ccc1-c1ccc(N2CCc3cccc(C(=O)Nc4nc5ccccc5s4)c3C2)nc1C(=O)O [Example 111, 6-[8-(1,3-benzothiazol-2-ylcarbamoyl)-3,4-dihydroisoquinolin-2(1H)-yl]-3-(2-methyl-4-phenoxyphenyl)pyridine-2-carboxylic acid]	> 1000	21	–
O=C(Nc1nc2ccccc2s1)c1cccc2c1CN(c1ccc(-c3cnn(C4CCOc5ccccc54)c3)c(C(=O)O)n1)CC2 (stereo not drawn) [Example 39, 6-[8-(1,3-benzothiazol-2-ylcarbamoyl)-3,4-dihydroisoquinolin-2(1H)-yl]-3-[1-(3,4-dihydro-2H-chromen-4-yl)-1H-pyrazol-4-yl]pyridine-2-carboxylic acid]	> 1000	56	–
CN(C)c1ccccc1Cn1cc(-c2ccc(N3CCc4cccc(C(=O)Nc5nc6ccccc6s5)c4C3)nc2C(=O)O)cn1 [Example 80, 6-[8-(1,3-benzothiazol-2-ylcarbamoyl)-3,4-dihydroisoquinolin-2(1H)-yl]-3-{1-[2-(dimethylamino)benzyl]-1H-pyrazol-4-yl}pyridine-2-carboxylic acid]	253	4	–
N#Cc1c(OC2CCCCC2)cccc1-c1ccc(N2CCc3cccc(C(=O)Nc4nc5ccccc5s4)c3C2)nc1C(=O)O [Example 116, 6-[8-(1,3-benzothiazol-2-ylcarbamoyl)-3,4-dihydroisoquinolin-2(1H)-yl]-3-[2-cyano-3-(cyclohexyloxy)phenyl]pyridine-2-carboxylic acid]	667	< 0.1	–
N#Cc1c(-c2ccc(N3CCc4cccc(C(=O)Nc5nc6ccccc6s5)c4C3)nc2C(=O)O)cccc1N1CCCC1C12CC3CC(CC(C3)C1)C2 (stereo not drawn) [Example 182, 6-[8-(1,3-benzothiazol-2-ylcarbamoyl)-3,4-dihydroisoquinolin-2(1H)-yl]-3-{2-cyano-3-[2-(tricyclo[3.3.1.1^3,7]dec-1-yl)pyrrolidin-1-yl]phenyl}pyridine-2-carboxylic acid]	6	0.2	–
O=C(Nc1nc2ccccc2s1)c1cccc2c1CN(c1ccc(-c3cnn(C(c4ccccc4)c4ccccc4)c3)c(C(=O)O)n1)CC2 [Example 75, 6-[8-(1,3-benzothiazol-2-ylcarbamoyl)-3,4-dihydroisoquinolin-2(1H)-yl]-3-[1-(diphenylmethyl)-1H-pyrazol-4-yl]pyridine-2-carboxylic acid]	919	28	–
O=C(Nc1nc2ccccc2s1)c1cccc2c1CN(c1ccc(-c3cnn(Cc4cccc(N5CCCC5)n4)c3)c(C(=O)O)n1)CC2 [Example 22, 6-[8-(1,3-benzothiazol-2-ylcarbamoyl)-3,4-dihydroisoquinolin-2(1H)-yl]-3-(1-{[6-(pyrrolidin-1-yl)pyridin-2-yl]methyl}-1H-pyrazol-4-yl)pyridine-2-carboxylic acid]	214	6	–
CCOC(=O)c1nn(Cc2ccccc2)c(C)c1-c1ccc(N2CCc3cccc(C(=O)Nc4nc5ccccc5s4)c3C2)nc1C(=O)O [Example 33, 6-[8-(1,3-benzothiazol-2-ylcarbamoyl)-3,4-dihydroisoquinolin-2(1H)-yl]-3-[1-benzyl-3-(ethoxycarbonyl)-5-methyl-1H-pyrazol-4-yl]pyridine-2-carboxylic acid]	> 1000	169	–
O=C(Nc1nc2ccccc2s1)c1cccc2c1CN(c1ccc(-c3cnn(CC4CCOCC4)c3)c(C(=O)O)n1)CC2 [Example 50, 6-[8-(1,3-benzothiazol-2-ylcarbamoyl)-3,4-dihydroisoquinolin-2(1H)-yl]-3-[1-(tetrahydro-2H-pyran-4-ylmethyl)-1H-pyrazol-4-yl]pyridine-2-carboxylic acid]	> 1000	99	–
